Holding throughout (assay): NCI anticancer screen, dose series, 48 h
Test [1] deals with DU-145 prostate.
The subject of test [2] is OVCAR-4 ovarian.
Test [3] has as its system T-47D breast.
Test [4] relates to BT-549 breast.
Test [5] concerns A498 renal.
The test system of test [6] is SF-539 CNS.
For test [7], the system named is MDA-MB-435.
Test [8] has as its system HOP-92 NSCLC.
Test [9] concerns SK-OV-3 ovarian.
In test [10] the test system is M14 melanoma.
The subject of test [11] is NCI-H522 lung.
For test [12], the system named is NCI-H460 lung.
The test system of test [13] is KM12 colon.

“And” between values parts separate entries of the source, which are not always exact repeats. Identical values can stand only once.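 Results reflect a 48-hour exposure of cells in 96-well plates to compound at five concentrations. GI50: concentration for 50% inhibition of growth. TGI: concentration producing complete growth inhibition.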

`CCC(=O)N(c1ccccc1)C(C)CN1CCC(O)(c2ccccc2)CC1` (stereo unspecified): the TGI in test [1], in test [2], in test [3], in test [4], in test [5] and in test [6] was above 100 µM in each case. For the same compound, the TGI in test [7], in [8], in test [9], in [10] and in test [11] was above 100 µM in each case.

`NC(=S)N/N=C/c1cc(CN2CCOCC2)c(N)cn1`: the TGI in test [1], in test [3], in test [4], in [12], in [13] and in [5] was above 100 µM each time. Further, the TGI in test [6] was 84.2 µM; in test [7] it was above 100 µM; in test [9] it was above 100 µM; in [10] it was 50.9 µM.

In the case of `CN1CC=C(OP(=O)(NCc2ccccc2)N(CCCl)CCCl)CC1` (stereo unspecified), the TGI in test [1], in test [2], in test [3], in [4], in [12] and in [13] was above 100 µM each time. The TGI in [5], in test [6], in test [7], in test [8], in [9] and in test [10] was above 100 µM in each case.

On to `CCCCCCN(C(=O)Oc1ccccc1)C(C#N)c1ccccc1` (stereo unspecified), for which the TGI in [1], in [2], in test [3], in test [4], in test [13] and in [5] was above 100 µM throughout. For the same compound, the TGI in test [6], in [7], in test [8], in test [9], in [10] and in [11] was above 100 µM throughout.

In the case of `CCCOC(=O)c1cc(C(=CCC[C@H]2CC[C@@]3(C)[C@@H](CC[C@@H]4[C@@H]3CC[C@]3(C)[C@@H](C(C)CCCC(C)C)CC[C@@H]43)C2)c2cc(Cl)c(O)c(C(=O)OCCC)c2)cc(Cl)c1O` (stereo partly specified), the TGI in test [1], in [2], in [3], in test [4], in test [12] and in test [13] was above 50 µM each time. For the same compound, the TGI in test [5] and in test [7] was above 50 µM throughout.

For the compound `CC(=O)c1c2c(cc3c1CC1(Cc4cc5c(cc4C1)CCC5)C3)CCC2`, the TGI in test [1], in [2], in test [3], in test [12], in [5] and in test [6] was above 100 µM each time. Besides, the TGI in test [7], in [8], in test [9], in test [10] and in test [11] was above 100 µM each time.

Take `CC1CCCc2c(-c3ccc(Cl)cc3)nc(N)c(C#N)c21` (stereo unspecified): the TGI is above 100 µM in test [1]; 35.6 µM in test [3]; 53.4 µM in test [4]; 81.4 µM in [12]; 56.7 µM in test [13]; 89 µM in test [5]. Further, the TGI was 92.3 µM in test [6], above 100 µM in test [7], 83.6 µM in [9] and 86 µM in test [10].

In the case of `C/C(C=O)=N\Nc1cc(C)c2ccccc2n1`, the TGI amounted to 29.9 µM in test [1]; 27.8 µM in test [2]; 39.9 µM in test [3]; 26.6 µM in [4]; 28.5 µM in test [13]; 28.9 µM in test [5]. For the same compound, the TGI in test [6] is 28.8 µM; in test [7], 38.1 µM; in test [8], 29.6 µM; in test [9], 45 µM; in test [10] it was 31.8 µM; in test [11], 47.1 µM.

For the compound `CCCCCCC(N)(CCCCCC)C(=O)Nn1c(C)ccc1C`, the TGI in test [1], in test [2], in test [3], in [4], in test [12] and in test [13] was above 100 µM in each case. The TGI in [5], in test [7], in test [9], in test [10] and in [11] was above 100 µM throughout.

For `CSc1nc(C)cc(Nc2ccc(O)c(CN3CCCCC3)c2)n1`, the TGI in [1] is above 100 µM; in [2], above 100 µM; in test [3], above 100 µM; in test [4], above 100 µM; in [13], above 100 µM; in [5], 53.1 µM. Also, the TGI was above 100 µM in [6]; above 100 µM in test [7]; above 100 µM in test [8]; above 100 µM in [9]; 31.8 µM in [10]; above 100 µM in test [11].

`CC(=NNC(=S)Nc1ccccc1C)c1cccc(C(C)=NNC(=S)Nc2ccccc2C)n1`: the TGI in [1] was above 100 µM; in test [2] it was 91.7 µM; in test [3] it was above 100 µM; in test [12] it was above 100 µM; in test [13] it was above 100 µM; in [5], above 100 µM. For the same compound, the TGI in [6], in [7], in test [8], in test [9] and in test [10] was above 100 µM in each case.

With `O=C1C(NCCc2cc(Br)c(O)c(Br)c2)=CC(=O)c2ncccc21`, the TGI in test [1] worked out at 12 µM; in test [2] it was 16.7 µM; in [3], 52 µM; in [12], 5.41 µM; in test [13] it was 20.1 µM; in test [5], 9.88 µM. The TGI in test [6] was 5.36 µM; in [7], 3.09 µM; in [8] it was 47.5 µM; in [9], 68.1 µM; in [10], 8.36 µM; in test [11] it was 12.1 µM.

For the compound `NN/C(=N\S(=O)(=O)c1cc(Cl)c(Oc2ccc([N+](=O)[O-])cc2Cl)c(Cl)c1)Nc1ccc(Cl)cc1`, the TGI was determined as 38.4 µM in test [1]; 57.1 µM in test [2]; 56.5 µM in test [3]; 40.9 µM in test [4]; 31.9 µM in test [12]; 42.1 µM in [13]. For the same compound, the TGI in [5] is 64.4 µM; in test [6], 31.3 µM; in [8], 38.9 µM; in test [9] it was above 100 µM; in test [10] it was 31.2 µM.

Regarding `N#C/C(=C\c1ccc(Cl)cc1)c1nc2ccccc2c(=O)[nH]1`, the TGI in [1] was above 100 µM; in test [2], above 100 µM; in test [3], above 100 µM; in test [4], 69.2 µM; in [12], above 100 µM; in [13], above 100 µM. Moreover, the TGI in [6] was above 100 µM; in test [7], above 100 µM; in test [8], 39.9 µM; in test [9], above 100 µM; in test [10], above 100 µM; in [11], above 100 µM.

`CCCCCCCCCC(=O)OCC1(CO)C/C(=C/CC(C(C)C)C(C)C)C(=O)O1` (stereo unspecified): the TGI in [1] is above 100 µM; in test [2] it was above 100 µM; in test [3], above 100 µM; in [4], above 100 µM; in test [12], above 100 µM; in [13] it was 83.7 µM. The TGI in test [5] was above 100 µM; in [7] it was above 100 µM; in [8] it was above 100 µM; in [9], above 100 µM; in [10], above 100 µM; in test [11] it was 39.8 µM.

`CN(C(=O)C1=CCCCCC1)c1ccccc1I`: the TGI is above 100 µM in test [1]; 86.9 µM in [2]; above 100 µM in [3]; above 100 µM in test [12]; 93.9 µM in [13]; above 100 µM in test [5]. In addition, the TGI in test [7], in test [9] and in test [10] was above 100 µM each time.

As to `COC(=O)/C=C/c1cc(OC)c2c(c1)C(C(=O)OC)C(c1ccc(OC)c(OC)c1)O2` (stereo unspecified), the GI50 was above 100 µM in [1]; 45.9 µM and 8.71 µM in test [2]; 39.9 µM and 4.16 µM in test [3]; 29 µM and 6.01 µM in [4]; 48.6 µM and 15.7 µM in test [12]; 64.1 µM in test [5]. In addition, the GI50 in [7] was 19.8 µM. Further, the TGI in test [1] was above 100 µM; in test [2] it was above 100 µM; in test [3], above 100 µM; in [4] it was 99.6 µM and > 100 µM; in test [12], above 100 µM; in test [13], above 100 µM. For the same compound, the TGI is above 100 µM in test [5]; 49 µM in test [7]; above 100 µM in test [8]; above 100 µM in test [9]; above 100 µM in test [10]; above 100 µM in test [11].

`COc1ccc2oc(=N)c(C(N)=S)cc2c1`: the TGI in test [1] was above 100 µM; in test [2], above 100 µM; in [3] it was 99.3 µM; in test [4] it was 43.5 µM; in [12], 39.7 µM; in [13] it was 84.8 µM. Moreover, the TGI is 51.7 µM in [6]; above 100 µM in test [7]; 50.7 µM in test [8]; above 100 µM in test [9]; above 100 µM in [10]; 35.3 µM in test [11].

Regarding `CCOC(=O)[C@H]1C[C@@H](C(=O)c2ccccc2)N2N=C(c3ccc(Br)cc3)C=C[C@H]12`, the TGI in [1], in [2], in [3], in test [4], in test [12] and in test [13] was above 100 µM in each case. Moreover, the TGI in test [5], in test [7], in test [9] and in test [10] was above 100 µM throughout.

Regarding `CC(=O)OCC(OC(C)=O)C(OC(C)=O)C(/C=N/N(C(C)=O)S(=O)(=O)c1ccc(/C=C2\NC(=O)NC2=O)cc1)OC(C)=O` (stereo unspecified), the TGI in test [1], in test [2], in test [3], in test [4], in [12] and in test [5] was above 100 µM throughout. Further, the TGI in test [6], in [7], in test [9] and in [10] was above 100 µM in each case.

As for `N[C@@H]1C[C@H](N)c2c(Cl)sc(Cl)c21`, the TGI in [1], in [2], in test [3], in test [4], in [12] and in test [13] was above 100 µM each time. Moreover, the TGI in test [5], in test [6], in test [7], in test [8] and in test [10] was above 100 µM each time.

As to `CC(=O)NNC=N/C(C#N)=C(\N)C#N`, the TGI in test [1], in [2], in test [3], in test [4], in test [12] and in test [13] was above 100 µM throughout. For the same compound, the TGI in test [5], in test [6], in [7], in test [9], in [10] and in test [11] was above 100 µM each time.

Turning to `CC(C#N)Nc1ccc(Oc2ccc(C(C)(C)c3ccc(Oc4ccc(NC(C)C#N)cc4)cc3)cc2)cc1` (stereo unspecified), the TGI in [2], in [3], in test [4], in [12], in [13] and in test [5] was above 100 µM throughout. Also, the TGI in [6], in test [7], in [8], in [9] and in test [10] was above 100 µM in each case.

(Values after PubChem BioAssay (NCI).)
